According to patent US7354904B2, “Bacteriocin inducer peptides” (priority 2005, dated 2008):

Key:
Format in all cases: cell-based
[1] = test system: S. enteritidis; experiment: Spot Test, antagonistic activity of isolated signal peptides; conditions: isolated signal peptide
Description: The antagonistic activity of the bacteriocins produced when using the signal peptide and an inducer strain of bacteria against C. jejuni and S. enteritidis was assessed using a Spot Test. The steps included taking various concentrations of pure preparation (μg/ml) of the bacteriocin in approximately 10 microliters of volume plated onto blood-supplemented Campylobacter agar or Nutrient agar (MPA or Meta Peptone Agar) previously seeded with cells of target bacteria. Plates containing cultures of C. jejuni were grown at about 42° C., under microaerobic conditions. Plates containing S. enteritidis were grown at about 37° C. under aerobic conditions. Activity of the bacteriocin was expressed in arbitrary units (AU) per one milliliter of the preparation at which a visible zone of inhibition of the growth of culture appears (Henderson et al., Archives of Biochemistry and Biophysics, Volume 295, 5-12, 1992; herein incorporated by reference). Specific activity can also expressed as arbitrary units per milligram of pure bacteriocin.
Its activity was about 200 AU/ml and its molecular weight was about 2.5 kDa, as determined by SDS-PAGE electrophoresis. The isoelectric point (pI) was about 7.9 (FIGS. 1A and 1B).
Its molecular weight was about 3.1 kDa as measured by SDS-PAGE and the isoelectric point (pI) was about 8.1 (FIGS. 2A and 2B).
Its molecular weight was about 2.1 kDa as determined by SDS-PAGE electrophoresis and its isoelectric point was about 8.9 (FIGS. 3A and 3B).

[2] = test system: Streptococcus cricetus LWP 760; experiment: Influence of signal peptide on bacteriocin 760 production, flask culture (fraction protein at 215 nm, activity by Spot Test against C. jejuni and S. enteritidis)
[3] = test system: Enterococcus faecium LWP 50-52; experiment: Influence of signal peptide on bacteriocin 50-52 production, flask culture (fraction protein at 215 nm, activity by spot-test against C. jejuni and S. enteritidis)
[4] = test system: Lactobacillus salivarius PVD-32; experiment: Influence of signal peptide on bacteriocin OR-7 production, flask culture (fraction protein at 215 nm, activity by Spot Test against C. jejuni and S. enteritidis)
[5] = LWP 760 + LWP 320, 0.1 mg LWP 50-52 peptide
[6] = LWP 50-52 + LWP 320, peptide 0.001 mg/ml
[7] = LWP 50-52 + LWP 320, peptide 0.001 mg/ml added after about 2 hours
[8] = LWP 50-52 + LWP 320, peptide 0.001 mg/ml added after about 4 hours
[9] = LWP 50-52 + LWP 320, peptide 0.001 mg/ml added after about 6 hours
[10] = LWP 50-52 + LWP 320, peptide 0.01 mg/ml
[11] = LWP 50-52 + LWP 320, peptide 0.01 mg/ml added after about 2 hours
[12] = LWP 50-52 + LWP 320, peptide 0.01 mg/ml added after about 4 hours
[13] = LWP 50-52 + LWP 320, peptide 0.01 mg/ml added after about 6 hours
[14] = LWP 50-52 + LWP 320, peptide 0.1 mg/ml
[15] = LWP 50-52 + LWP 320, peptide 0.1 mg/ml added after about 2 hours
[16] = LWP 50-52 + LWP 320, peptide 0.1 mg/ml added after about 4 hours
[17] = LWP 50-52 + LWP 320, peptide 0.1 mg/ml added after about 6 hours
[18] = LWP 50-52, no inducer, peptide 0.001 mg/ml
[19] = LWP 50-52, no inducer, peptide 0.001 mg/ml added after about 2 hours
[20] = LWP 50-52, no inducer, peptide 0.001 mg/ml added after about 4 hours
[21] = LWP 50-52, no inducer, peptide 0.001 mg/ml added after about 6 hours
[22] = LWP 50-52, no inducer, peptide 0.01 mg.ml added after about 4 hours
[23] = LWP 50-52, no inducer, peptide 0.01 mg.ml added after about 6 hours
[24] = LWP 50-52, no inducer, peptide 0.01 mg/ml
[25] = LWP 50-52, no inducer, peptide 0.01 mg/ml added after about 2 hours
[26] = LWP 50-52, no inducer, peptide 0.1 mg/ml
[27] = LWP 50-52, no inducer, peptide 0.1 mg/ml added after about 2 hours
[28] = LWP 50-52, no inducer, peptide 0.10 mg/ml added after about 4 hours
[29] = LWP 50-52, no inducer, peptide 0.10 mg/ml added after about 6 hours
[30] = 10% B-B, producer PVD-32 + inducer LWP-252, LWP 50-52 peptide 0.1 mg

TNVTKSWWVLAGCNQVVASNCNCGNVKGLT (listed as Enterococcus faecium) [LWP 50-52 Signal Peptide, signal peptide isolated from Enterococcus faecium LWP 50-52, stimulates bacteriocin 50-52 production]
antagonistic activity [1]: did not possess antagonistic activity | Activity [2, 5]: 1,638,840 AU/ml | Increase in amount of protein vs. control [2, 5]: 1 | Protein Concentration [2, 5]: 0.30 mg/mL | Protein Produced from 1 liter Culture Fluid [2, 5]: 99 mg | Specific Activity [2, 5]: 5,462,666 Au/mg | yield of bacteriocin 760 versus control ([2]; signal peptide of another strain added to LWP 760 + LWP 320): did not increase | Activity [3, 6]: 819,200 AU/ml | Protein Concentration [3, 6]: 0.25 mg/mL | Protein increase vs. Control [3, 6]: 1 | Specific Activity [3, 6]: 3,276,800 AU/mg | mg protein/liter [3, 6]: 82.5 mg protein/liter | Activity [3, 7]: 819,200 AU/ml | Protein Concentration [3, 7]: 0.25 mg/mL | Protein increase vs. Control [3, 7]: 1 | Specific Activity [3, 7]: 3,276,800 AU/mg | mg protein/liter [3, 7]: 82.5 mg protein/liter | Activity [3, 8]: 819,200 AU/ml | Protein Concentration [3, 8]: 0.25 mg/mL | Protein increase vs. Control [3, 8]: 1 | Specific Activity [3, 8]: 3,276,800 AU/mg | mg protein/liter [3, 8]: 82.5 mg protein/liter | Activity [3, 9]: 819,200 AU/ml | Protein Concentration [3, 9]: 0.25 mg/mL | Protein increase vs. Control [3, 9]: 1 | Specific Activity [3, 9]: 3,276,800 AU/mg | mg protein/liter [3, 9]: 82.5 mg protein/liter | Activity [3, 10]: 1,638,400 AU/ml | Protein Concentration [3, 10]: 1.0 mg/mL | Protein increase vs. Control [3, 10]: 4 | Specific Activity [3, 10]: 1,638,400 AU/mg | mg protein/liter [3, 10]: 330.0 mg protein/liter | Activity [3, 11]: 3,276,800 AU/ml | Protein Concentration [3, 11]: 1.07 mg/mL | Protein increase vs. Control [3, 11]: 4.28 | Specific Activity [3, 11]: 3,062,429 AU/mg | mg protein/liter ([3]; LWP 50-52 + LWP 320, peptide 0.01 mg/ml added after about 2 hours, listed as LWP 320 Signal Peptide): 353.1 mg protein/liter | mg protein/liter ([3]; LWP 50-52 + LWP 320, peptide 0.01 mg/ml added after about 2 hours, listed as signal peptide from LWP 50-52): about 353.1 mg protein/liter | Activity [3, 12]: 1,638,400 AU/ml | Protein Concentration [3, 12]: 1.0 mg/mL | Protein increase vs. Control [3, 12]: 4 | Specific Activity [3, 12]: 1,638,400 AU/mg | mg protein/liter [3, 12]: 330.0 mg protein/liter | Activity [3, 13]: 1,638,400 AU/ml | Protein Concentration [3, 13]: 1.0 mg/mL | Protein increase vs. Control [3, 13]: 4 | Specific Activity [3, 13]: 1,638,400 AU/mg | mg protein/liter [3, 13]: 330.0 mg protein/liter | Activity [3, 14]: 819,200 AU/ml | Protein Concentration [3, 14]: 0.25 mg/mL | Protein increase vs. Control [3, 14]: 1 | Specific Activity [3, 14]: 3,276,800 AU/mg | mg protein/liter [3, 14]: 82.5 mg protein/liter | Activity [3, 15]: 819,200 AU/ml | Protein Concentration [3, 15]: 0.25 mg/mL | Protein increase vs. Control [3, 15]: 1 | Specific Activity [3, 15]: 3,276,800 AU/mg | mg protein/liter [3, 15]: 82.5 mg protein/liter | Activity [3, 16]: 819,200 AU/ml | Protein Concentration [3, 16]: 0.25 mg/mL | Protein increase vs. Control [3, 16]: 1 | Specific Activity [3, 16]: 3,276,800 AU/mg | mg protein/liter [3, 16]: 82.5 mg protein/liter | Activity [3, 17]: 819,200 AU/ml | Protein Concentration [3, 17]: 0.25 mg/mL | Protein increase vs. Control [3, 17]: 1 | Specific Activity [3, 17]: 3,276,800 AU/mg | mg protein/liter [3, 17]: 82.5 mg protein/liter | Activity [3, 18]: 819,200 AU/ml | Protein Concentration [3, 18]: 0.25 mg/mL | Protein increase vs. Control [3, 18]: 1 | Specific Activity [3, 18]: 3,276,800 AU/mg | mg protein/liter [3, 18]: 82.5 mg protein/liter | Activity [3, 19]: 819,200 AU/ml | Protein Concentration [3, 19]: 0.25 mg/mL | Protein increase vs. Control [3, 19]: 1 | Specific Activity [3, 19]: 3,276,800 AU/mg | mg protein/liter [3, 19]: 82.5 mg protein/liter | Activity [3, 20]: 819,200 AU/ml | Protein Concentration [3, 20]: 0.25 mg/mL | Protein increase vs. Control [3, 20]: 1 | Specific Activity [3, 20]: 3,276,800 AU/mg | mg protein/liter [3, 20]: 82.5 mg protein/liter | Activity [3, 21]: 819,200 AU/ml | Protein Concentration [3, 21]: 0.25 mg/mL | Protein increase vs. Control [3, 21]: 1 | Specific Activity [3, 21]: 3,276,800 AU/mg | mg protein/liter [3, 21]: 82.5 mg protein/liter | Activity [3, 22]: 819,200 AU/ml | Protein Concentration [3, 22]: 0.27 mg/mL | Protein increase vs. Control [3, 22]: 1.08 | Specific Activity [3, 22]: 3,034,074 AU/mg | mg protein/liter [3, 22]: 89.1 mg protein/liter | Activity [3, 23]: 819,200 AU/ml | Protein Concentration [3, 23]: 0.27 mg/mL | Protein increase vs. Control [3, 23]: 1.08 | Specific Activity [3, 23]: 3,034,074 AU/mg | mg protein/liter [3, 23]: 89.1 mg protein/liter | Activity [3, 24]: 819,200 AU/ml | Protein Concentration [3, 24]: 0.27 mg/mL | Protein increase vs. Control [3, 24]: 1.08 | Specific Activity [3, 24]: 3,034,074 AU/mg | mg protein/liter [3, 24]: 89.1 mg protein/liter | Activity [3, 25]: 819,200 AU/ml | Protein Concentration [3, 25]: 0.31 mg/mL | Protein increase vs. Control [3, 25]: 1.24 | Specific Activity [3, 25]: 2,642,580 AU/mg | mg protein/liter [3, 25]: 102.3 mg protein/liter | Activity [3, 26]: 819,200 AU/ml | Protein Concentration [3, 26]: 0.25 mg/mL | Protein increase vs. Control [3, 26]: 1 | Specific Activity [3, 26]: 3,276,800 AU/mg | mg protein/liter [3, 26]: 82.5 mg protein/liter | Activity [3, 27]: 819,200 AU/ml | Protein Concentration [3, 27]: 0.27 mg/mL | Protein increase vs. Control [3, 27]: 1.08 | Specific Activity [3, 27]: 3,034,074 AU/mg | mg protein/liter [3, 27]: 89.1 mg protein/liter | Activity [3, 28]: 819,200 AU/ml | Protein Concentration [3, 28]: 0.27 mg/mL | Protein increase vs. Control [3, 28]: 1.08 | Specific Activity [3, 28]: 3,034,074 AU/mg | mg protein/liter [3, 28]: 89.1 mg protein/liter | Activity [3, 29]: 819,200 AU/ml | Protein Concentration [3, 29]: 0.26 mg/mL | Protein increase vs. Control [3, 29]: 1.04 | Specific Activity [3, 29]: 3,150,769 AU/mg | mg protein/liter [3, 29]: 85.8 mg protein/liter | Activity [4, 30]: 51,200 AU/ml | Protein Concentration [4, 30]: 0.17 Mg/ml | Protein increase vs. Control [4, 30]: 0.85 | Specific Activity [4, 30]: 301,176 AU/mg | mg protein/liter [4, 30]: 56.1 mg protein/liter | yield of bacteriocin OR-7 versus the control ([4]; signal peptide of another strain added to PVD-32 + LWP-252): does not increase
